# Non-standard residues stand in square brackets, D forms with d. Residues, ends and D or L forms follow the SMILES beside them. Nle = CCCC[C@H](N)C(=O)O
# What was measured:
# [1] = system: CFP-APO; assay: Vif-mediated depletion of CFP-APO with proteasome inhibition (immuno-blot, confocal microscopy); format: cell-based, human; conditions: for CFP-APO levels in the absence of Vif: 293T cells, pNL-A1Δvif
# Procedure: (§1) 293T cells were maintained in a humidified incubator (5% CO2) at 37° C. in Dulbecco's modified Eagle's medium (DMEM; Invitrogen) supplemented with 10% fetal bovine serum, 100 units/ml penicillin and 100 μg/ml streptomycin (Invitrogen). Qiagen-purified plasmid DNA (Qiagen, Valencia, Calif.) was transfected into 293T cells using Lipofectaminem 2000 lipofection agent (Invitrogen). For Western blot and immunoprecipitation experiments, 293T cells were transfected in either 6 or 12 well plates when the cells were ˜60% confluent. The amount of vector used and the molar ratio of vector for co-transfection experiments are described in the Results and figure legends. When necessary, final DNA amounts were made equal by the addition of pGEM (Promega). For live imaging and immuno-localization, 293T cells were seeded into poly-d-lysine coated 35 mm glass bottom culture dishes and transfected when the cells were ˜50% confluent. For proteasome inhibition studies, culture media containing 100 μM of N-Acetyl-Leu-Leu-Nle-CHO (ALLN, Calbiochem, La Jolla, Calif.) or the equivalent volume of DMSO was added to cells 12 hours prior to harvesting or imaging 36 hours post-transfection.
# (§2) The level of Vif-mediated depletion of APOBEC3G was further determined over a broad range of Vif (pNL-A1):APOBEC3G (pCFP-APO) vector ratios ranging from 1:1 to 1:0.0625, where 1 refers to 130 fmoles of vector. The level of depletion was determined by comparing the steady-state levels of CFP-APO when co-expressed with Vif to the equivalent Δvif control (pNL-A1Δvif). […]
# To prepare total protein lysates, each well of a 6- or 12-well plate was washed once in phosphate buffered saline (PBS, Invitrogen) and then lysed in either 400 or 200 μl, respectively, of Mammalian Protein Extraction Reagent (M-PER, Pierce, Rockford, Ill.) supplemented with 0.5% (v/v) Triton-X 100 (Pierce), 150 mM NaCl, 5 mM EDTA, and a 1/100 (v/v) dilution of a protease inhibitor cocktail for mammalian tissue for 30 minutes at 4° C. with gentle rotation. […] Protein concentration was determined by Dc protein assay (Bio-Rad, Hercules, Calif.). […]
# [2] = system: Vif; assay: Steady-state levels of Vif with proteasome inhibition (immuno-blot); format: cell-based, HIV-1; conditions: 293T cells, presence or absence of CFP-APO, 100 μM ALLN 12 hours
# Procedure: as §1, with “For proteasome inhibition studies, culture media containing 100 μM of N-Acetyl-Leu-Leu-Nle-CHO (ALLN, Calbiochem, La Jolla, Calif.) or the equivalent volume of DMSO was added to cells 12 hours prior to harvesting or imaging 36 hours post-transfection.” left out
# as §2
compound,measurement,setting,value
"CCCC[C@@H](C=O)NC(=O)[C@H](CC(C)C)NC(=O)[C@H](CC(C)C)NC(C)=O [ALLN, N-Acetyl-Leu-Leu-Nle-CHO] (Ac-Leu-Leu-[Nle]-aldehyde)",CFP-APO levels by confocal microscopy,"[1]; 293T cells expressing Vif, pNL-A1:pCFP-APO 1:0.25, proteasome inhibition",elevated
same,CFP-APO levels in the absence of Vif,"[1]; all ratios except 1:0.0625, 100 μM ALLN 12 hours",not significantly affected
same,CFP-APO levels in the absence of Vif,"[1]; lowest pCFP-APO input (1:0.0625 ratio), 100 μM ALLN 12 hours",modest reduction in expression
same,Steady-state levels of Vif,[2],elevated the steady-state levels of Vif
